For one series, the system named is carrageenan edema. As to the kind of experiment: carrageenan edema inhibiting effect of betamethasone valerate ointments. It is filed as in vivo, rat. Particulars: Table 5, betamethasone valerate ointment with penetration enhancer. The method, then: An ointment was prepared from 0.15 part by weight of betamethasone valerate, 9.85 parts by weight of compound (168) and 90 parts by weight of the hydrophilic ointment.
In accordance with the method of R. Passarella et al. [Argneim. Forsch 30, (I), Nr. 4, 647-651 (1980)], the carrageenan edema inhibiting effect of the above ointment was examined. Specifically, 0.1 ml of a 1% carrageenan suspension in 0.9% NaCl solution was injected into the tip of the right leg of a rat (body weight 150-175 g). The foot volume was measured immediately after administration of carrageenan and 3, 5, and 6 hours after the administration by means of a mercury displacement device. 0.5, 1 and 2 hours after the administration of carrageenan, 100 mg of the ointment was well […] into each of the sites which underwent inflammation.
Various ointments were prepared from 0.15 part by weight of betamethasone valerate, […] of the various penetration enhancers shown in Table 5, and 85 parts by weight of the hydrophilic ointment, and tested in the same way as in Example 23.
Background: Carrageenan injected into the paw causes an acute inflammation.

Series [1] deals with eye (cornea, iris, conjunctiva). As to the kind of experiment: primary eye irritation (Draize) in rabbits. The note with it: for Primary irritation score, Conjunctiva / Primary irritation score, Cornea / Primary irritation score, Iris / Primary irritation score, Total: average of three rabbits. It is filed as in vivo, white native male rabbits. The protocol: enhancers of this invention shown in Table 17 was applied dropwise to one eye of white native male rabbits (body weight 2.0 to 3.0 kg; 3 per group) which, it had been ascertained, were free from any trouble at the cornea, iris and conjunctiva. Nothing was applied to the other eye. Thus, irritation of the absorption aid to the mucous membrane of the eyes were examined, and scores were calculated in accordance with the Draize's eye irritation evaluating method [Association of Foods, "Drugs and Cosmetics" (1957)].
As a control, sodium laurylsulfate, a kind of surface-active agent, was evaluated in the same way, and the results are also shown in Table 17.

As for `CCCCCCOCC(O)COC(=O)[C@@H]1CCC(=O)N1` (some centres unmarked) [Compound (104), 3-hexyloxy-2-hydroxy-1-pyroglutamyloxypropane], the figures for the “Percentage inhibition vs. control” value in the series with carrageenan edema (3 hrs), in the series on carrageenan edema (5 hrs) and in the series on carrageenan edema (6 hrs) were 18.3%, 35.3% and 37.0%, respectively.

Regarding `CCCCCCCC/C=C\CCCCCCCC(=O)OCC(COC(=O)C1CCC(=O)N1)OC(=O)CCCCCCC/C=C\CCCCCCCC` (centres unmarked) [Compound (170), 2,3,-dioleoyloxy-1-pyroglutamyloxypropane], the “Percentage inhibition vs. control” value in the series with carrageenan edema (3 hrs) was 17.9%; in the series on carrageenan edema (5 hrs) it was 33.4%; in the series with carrageenan edema (6 hrs) it was 36.2%.

Take `CCCCCCCCCCCCCCCCCCOCC(COC(=O)[C@@H]1CCC(=O)N1)OCCCCCCCCCCCCCCCCCC` (some centres unmarked) [Compound (124), 2,3-dioctadecyloxy-1-pyroglutamyloxypropane]: the “Percentage inhibition vs. control” value in the series on carrageenan edema (3 hrs) was determined as 19.5%; with carrageenan edema (5 hrs), 37.8%; in the series on carrageenan edema (6 hrs), 36.6%.

As for `CCCCCCCCCCCCOS(=O)(=O)[O-].[Na+]` [Sodium Laurylsulfate, sodium laurylsulfate, reference compound], the “Primary irritation score, Conjunctiva” value in series [1] (0.1% soln, 1 hour) worked out at 4.0; in series [1] (0.1% soln, 3 hours) it was 4.0; in series [1] (0.1% soln, 6 hours) it was 0; in series [1] (0.1% soln, 24 hours), 0; in series [1] (0.1% soln, 48 hours), 0; in series [1] (0.1% soln, 72 hours), 0. Besides, the “Primary irritation score, Conjunctiva” value was found to be 0 in series [1] (0.1% soln, 96 hours); 0 in series [1] (0.1% soln, 168 hours); 13.3 in series [1] (2.4% soln, 1 hour); 12.7 in series [1] (2.4% soln, 3 hours); 11.3 in series [1] (2.4% soln, 6 hours); 8.0 in series [1] (2.4% soln, 24 hours). The “Primary irritation score, Conjunctiva” value is 4.0 in series [1] (2.4% soln, 48 hours); 2.7 in series [1] (2.4% soln, 72 hours); 2.0 in series [1] (2.4% soln, 96 hours); 0.7 in series [1] (2.4% soln, 168 hours). In addition, the “Primary irritation score, Cornea” value in series [1] (0.1% soln, 1 hour) is 0; in series [1] (0.1% soln, 3 hours), 0; in series [1] (0.1% soln, 6 hours) it was 0; in series [1] (0.1% soln, 24 hours), 0; in series [1] (0.1% soln, 48 hours), 0; in series [1] (0.1% soln, 72 hours) it was 0. In addition, the “Primary irritation score, Cornea” value is on record as 0 in series [1] (0.1% soln, 96 hours); 0 in series [1] (0.1% soln, 168 hours); 0 in series [1] (2.4% soln, 1 hour); 0 in series [1] (2.4% soln, 3 hours); 0 in series [1] (2.4% soln, 6 hours); 0 in series [1] (2.4% soln, 24 hours). Also, the “Primary irritation score, Cornea” value in series [1] (2.4% soln, 48 hours) came out at 0; in series [1] (2.4% soln, 72 hours), 0; in series [1] (2.4% soln, 96 hours), 0; in series [1] (2.4% soln, 168 hours), 0. Further, the “Primary irritation score, Iris” value is 0 in series [1] (0.1% soln, 1 hour); 0 in series [1] (0.1% soln, 3 hours); 0 in series [1] (0.1% soln, 6 hours); 0 in series [1] (0.1% soln, 24 hours); 0 in series [1] (0.1% soln, 48 hours); 0 in series [1] (0.1% soln, 72 hours). The “Primary irritation score, Iris” value in series [1] (0.1% soln, 96 hours) came out at 0; in series [1] (0.1% soln, 168 hours) it was 0; in series [1] (2.4% soln, 1 hour), 5.0; in series [1] (2.4% soln, 3 hours), 0; in series [1] (2.4% soln, 6 hours), 0; in series [1] (2.4% soln, 24 hours) it was 0. Besides, the “Primary irritation score, Iris” value in series [1] (2.4% soln, 48 hours) is 0; in series [1] (2.4% soln, 72 hours) it was 0; in series [1] (2.4% soln, 96 hours) it was 0; in series [1] (2.4% soln, 168 hours) it was 0. Besides, the “Primary irritation score, Total” value in series [1] (0.1% soln, 1 hour) worked out at 4.0; in series [1] (0.1% soln, 3 hours), 4.0; in series [1] (0.1% soln, 6 hours) it was 0; in series [1] (0.1% soln, 24 hours), 0; in series [1] (0.1% soln, 48 hours) it was 0; in series [1] (0.1% soln, 72 hours), 0. In addition, the “Primary irritation score, Total” value in series [1] (0.1% soln, 96 hours) is given as 0; in series [1] (0.1% soln, 168 hours), 0; in series [1] (2.4% soln, 1 hour), 18.3; in series [1] (2.4% soln, 3 hours), 12.7; in series [1] (2.4% soln, 6 hours), 11.3; in series [1] (2.4% soln, 24 hours), 8.0. Moreover, the “Primary irritation score, Total” value in series [1] (2.4% soln, 48 hours) came to 4.0; in series [1] (2.4% soln, 72 hours), 2.7; in series [1] (2.4% soln, 96 hours), 2.0; in series [1] (2.4% soln, 168 hours) it was 0.7. Also, the “eye irritation (in words)” value in series [1] (rabbit, in vivo) is listed as “fairly strong irritation”.

Turning to `CCCCCCCC(=O)OCC(O)COC(=O)[C@@H]1CCC(=O)N1` (some centres unmarked) [Compound (160), 2-hydroxy-3-octanoyloxy-1-pyroglutamyloxypropane], the “Percentage inhibition vs. control” value with carrageenan edema (3 hrs) is recorded as 17.7%; in the series on carrageenan edema (5 hrs), 30.8%; in the series on carrageenan edema (6 hrs), 29.9%.

Take `CCCCCCCC=CCCCCCCCCOCC(COC(=O)[C@@H]1CCC(=O)N1)OCCCCCCCCC=CCCCCCCC` (some centres unmarked) [Compound (142), 2,3-di(9-heptadecenyloxy)-1-pyroglutamyloxypropane]: the “Percentage inhibition vs. control” value in the series on carrageenan edema (3 hrs) is listed as 16.5%; in the series with carrageenan edema (5 hrs), 34.6%; in the series on carrageenan edema (6 hrs), 34.0%.

`CCCCCCCCCCCCCCCC1OCC(COC(=O)C2CCC(=O)N2)O1` (centres unmarked) [Compound (220), 2,3-dioxo-(pentadecyl)methylene-1-pyroglutamyloxypropane]: the “Percentage inhibition vs. control” value with carrageenan edema (3 hrs) amounted to 16.6%; in the series with carrageenan edema (5 hrs) it was 29.7%; with carrageenan edema (6 hrs), 29.8%.

For the compound `CCC=CC(=O)OCC(O)COC(=O)[C@@H]1CCC(=O)N1` (some centres unmarked) [Compound (184), 2-hydroxy-3(2-pentenoyloxy)-1-pyroglutamyloxypropane], the figures for the “Percentage inhibition vs. control” value with carrageenan edema (3 hrs), in the series with carrageenan edema (5 hrs) and in the series on carrageenan edema (6 hrs) were 19.0%, 35.3% and 35.5%, respectively.

As for `CCCCCCCCCCC=CCCCCCCCCCC(=O)OCC(O)COC(=O)[C@@H]1CCC(=O)N1` (some centres unmarked) [Compound (192), 3-(11-docosenoyloxy)-2-hydroxy-1-pyroglutamyloxypropane], the “Percentage inhibition vs. control” value in the series with carrageenan edema (3 hrs) came to 19.5%; in the series on carrageenan edema (5 hrs), 36.7%; with carrageenan edema (6 hrs) it was 30.8%.

Turning to `CCCCC(=O)OCC(O)COC(=O)[C@@H]1CCC(=O)N1` (some centres unmarked) [Compound (156), 2-hydroxy-3-valeryloxy-1-pyroglutamyloxypropane], the “Percentage inhibition vs. control” value in the series on carrageenan edema (3 hrs) is 18.6%; in the series with carrageenan edema (5 hrs) it was 35.1%; in the series on carrageenan edema (6 hrs) it was 34.3%.

On to `CCCCC(=O)OCC(COC(=O)[C@@H]1CCC(=O)N1)OC(=O)CCCC` (some centres unmarked) [Compound (158), 2,3-divaleryloxy-1-pyroglutamyloxypropane], for which the “Percentage inhibition vs. control” value amounted to 18.0% in the series on carrageenan edema (3 hrs), 36.0% with carrageenan edema (5 hrs) and 36.1% with carrageenan edema (6 hrs).

As for `CCCCCCCCOCC(COC(=O)[C@@H]1CCC(=O)N1)OCCCCCCCC` (some centres unmarked) [Compound (122), 2,3-dioctyloxy-1-pyroglutamyloxypropane], the “Percentage inhibition vs. control” value turned out to be 20.2% in the series on carrageenan edema (3 hrs), 36.5% in the series with carrageenan edema (5 hrs) and 38.3% in the series on carrageenan edema (6 hrs).

Consider `CC1(C)OCC(COC(=O)C2CCC(=O)N2)O1` (centres unmarked) [Compound (202), 2,3-dioxo-(dimethyl)methylene-1-pyroglutamyloxypropane], for which the “Percentage inhibition vs. control” value turned out to be 17.7% with carrageenan edema (3 hrs), 39.6% with carrageenan edema (5 hrs) and 36.1% with carrageenan edema (6 hrs).

With `CCCCCCCCCCCCCCCCCCOCC(O)COC(=O)[C@@H]1CCC(=O)N1` (some centres unmarked) [Compound (112), 2-hydroxy-3-octadecyloxy-1-pyroglutamyloxypropane], the “Percentage inhibition vs. control” value is 17.8% with carrageenan edema (3 hrs), 32.2% in the series with carrageenan edema (5 hrs) and 33.0% in the series with carrageenan edema (6 hrs).

For the origin of these results see patent US4746675A, “External pharmaceutical composition” (Teijin Limited, priority 1983, dated 1988).
